Measurements taken from patent US5114464A, “4-quinoxalinyloxyphenoxyalkylinitrile herbicides” (Uniroyal Chemical Company, Inc., priority 1990, dated 1992).

Experiments:
weeds [1] = assay: Preemergence control, summary statement; assay type: in vivo; settings: 11.2 kg/ha
Description: (§1) To illustrate the effectiveness of the Compounds 1 and 2 of this invention as preemergence herbicides, 300 mg of each compound were dissolved in 10 ml acetone to which 30 mg of an emulsifying agent, ethoxylated sorbitan monolaurate, were added. The solution was diluted to 100 ml with distilled water. Ten milliliters of the 3000 ppm solution were diluted to 250 ppm with distilled water. The chemical was applied at the rate of 10 lb/A (11.2 kg/ha) by drenching 46 ml of the 250 ppm solution on the surface of soil in 41/2inch (11.25 cm) plastic pots wherein seeds of the following weeds had been planted: velvet leaf (Abutilon theoohrasti Medic.) (VL), prickly sida (sida soinosa L.) (PS), tall morningglory (Ioomea purourea L. Roth) (TM), switchgrass (Panicum viroatum L.) (SG), barnyard grass (Echinolchloa crus-oalli (L.) Beauv.) (BG), and green foxtail (Setaria viridis) (L.) Beauv.) (GF). The percent control of the weeds compared to untreated checks was determined two weeks after treatment.

barnyard grass [2] = assay: Preemergence control of barnyard grass (Table I); assay type: in vivo, Echinolchloa crus-oalli (L.) Beauv.; settings: 11.2 kg/ha, two weeks after treatment
Description: as §1

green foxtail [3] = assay: Preemergence control of green foxtail (Table I); assay type: in vivo, Setaria viridis (L.) Beauv.; settings: 11.2 kg/ha, two weeks after treatment
Description: as §1

velvet leaf [4] = assay: Postemergence control of velvet leaf (Table II); assay type: in vivo, Abutilon theoohrasti Medic.; settings: 3000 ppm, two weeks after treatment
Description: as §1
(§2) To test the effectiveness of Compounds 1 and 2 of this invention as postemergence herbicides, a 3000 ppm solution of each compound (produced in accordance with the process described under Example 3) was atomized employing a DEVILBISS [trademark] sprayer, wetting the foliage to the drip point. […] The percent weed control was evaluated two weeks after treatment.

tall morningglory [5] = assay: Preemergence control of tall morningglory (Table I); assay type: in vivo, Ioomea purourea L. Roth; settings: 11.2 kg/ha, two weeks after treatment
Description: as §1

switchgrass [6] = assay: Postemergence control of switchgrass (Table II); assay type: in vivo, Panicum viroatum L.; settings: 3000 ppm, two weeks after treatment
Description: as §1, §2

corn = assay: Postemergence selectivity, greenhouse: corn injury (Table V); assay type: in vivo; settings: for Percent crop injury CR: postemergence, 2 weeks
Description: (§3) To illustrate the effectiveness of Compound 1 of this invention as a corn-safe selective postemergence herbicide, the 3000 ppm solution prepared as described in Example 3 was diluted with distilled water to 250 ppm and applied to foliage as described in Example 3. The commercial product Hoelon 3EC® (Hoechst) was included as a standard. The foliage included weedy grasses described in Example 3 in addition to the crops corn, soybeans and cotton. The foliage was planted in a Connecticut greenhouse on May 16, and was treated on May 26. The percent weed control and crop injury was determined on Jun. 12.
(§4) To illustrate the effectiveness of Compound 2 of this invention as a corn-safe selective postemergence herbicide, various concentrations of the compound were prepared and applied as in Example 5 to the following weeds and crops: velvet leaf (Abutilon theoohrasti Medic.) (VL), prickly sida (Sida spinosa L.) (PS), wild morningglory (Ipomopa sp.) (WM), barnyard grass (Echinolchloa crus-galli (L.) Beauv.) (BG), green foxtail (Setaria viridis) (L.) Beauv.) (GF), wild oat (Avena fatua L.) (WO), corn (CR), soybean (SO), cotton (CT) and rice (RC). The weeds and crops were planted in mid-September in a Connecticut greenhouse and were treated eight days later. The percent weed control and crop injury was determined 2 weeks after treatment.

barnyard grass [7] = assay: Postemergence control of barnyard grass (Table II); assay type: in vivo, Echinolchloa crus-oalli (L.) Beauv.; settings: 3000 ppm, two weeks after treatment
Description: as §1, §2

wild oat = assay: Postemergence selectivity, greenhouse: wild oat (Table V); assay type: in vivo, Avena fatua L.; settings: 2 weeks
Description: as §3, §4

green foxtail [8] = assay: Postemergence selectivity, greenhouse: green foxtail (Table V); assay type: in vivo, Setaria viridis (L.) Beauv.; settings: 2 weeks
Description: as §3, §4

prickly sida [9] = assay: Postemergence control of prickly sida (Table II); assay type: in vivo, sida soinosa L.; settings: 3000 ppm, two weeks after treatment
Description: as §1, §2

barnyard grass [10] = assay: Postemergence selectivity, greenhouse: barnyard grass (Table V); assay type: in vivo, Echinolchloa crus-galli (L.) Beauv.; settings: 2 weeks
Description: as §3, §4

rice = assay: Postemergence selectivity, greenhouse: rice injury (Table V); assay type: in vivo; settings: 2 weeks
Description: as §3, §4

grass weeds = assay: Postemergence selectivity greenhouse (Example 7), summary for grass weeds; assay type: in vivo; settings: 1000 to 3000 ppm
Description: as §3, §4

wild morningglory = assay: Postemergence selectivity, greenhouse: wild morningglory (Table V); assay type: in vivo, Ipomopa sp.; settings: 2 weeks
Description: as §3, §4

cotton = assay: Postemergence selectivity, greenhouse: cotton injury (Table V); assay type: in vivo; settings: 2 weeks
Description: as §3, §4

soybean = assay: Postemergence selectivity, greenhouse: soybean injury (Table V); assay type: in vivo; settings: 2 weeks
Description: as §3, §4

switchgrass [11] = assay: Preemergence control of switchgrass (Table I); assay type: in vivo, Panicum viroatum L.; settings: 11.2 kg/ha, two weeks after treatment
Description: as §1

weeds [12] = assay: Postemergence control, summary statement; assay type: in vivo; settings: 3000 ppm
Description: as §1, §2

prickly sida [13] = assay: Preemergence control of prickly sida (Table I); assay type: in vivo, sida soinosa L.; settings: 11.2 kg/ha, two weeks after treatment
Description: as §1

tall morningglory [14] = assay: Postemergence control of tall morningglory (Table II); assay type: in vivo, Ioomea purourea L. Roth; settings: 3000 ppm, two weeks after treatment
Description: as §1, §2

velvet leaf [15] = assay: Postemergence selectivity, greenhouse: velvet leaf (Table V); assay type: in vivo, Abutilon theoohrasti Medic.; settings: 2 weeks
Description: as §3, §4

velvet leaf [16] = assay: Preemergence control of velvet leaf (Table I); assay type: in vivo, Abutilon theoohrasti Medic.; settings: 11.2 kg/ha, two weeks after treatment
Description: as §1

prickly sida [17] = assay: Postemergence selectivity, greenhouse: prickly sida (Table V); assay type: in vivo, Sida spinosa L.; settings: 2 weeks
Description: as §3, §4

green foxtail [18] = assay: Postemergence control of green foxtail (Table II); assay type: in vivo, Setaria viridis (L.) Beauv.; settings: 3000 ppm, two weeks after treatment
Description: as §1, §2

CC(C#N)Oc1ccc(Oc2cnc3cc(Cl)ccc3n2)cc1 (stereo not shown) [Compound 2, 2-[4-(6-chloro-2-quinoxalinyloxy)phenoxy]propionitrile]
herbicidal efficacy (weeds [1]): good to excellent herbicidal efficacy
% Control BG (barnyard grass [2]): 50%
% Control GF (green foxtail [3]): 25%
% Control VL (velvet leaf [4]): 95%
% Control TM (tall morningglory [5]): 0%
% Control SG (switchgrass [6]): 35%
Percent crop injury CR (corn; 1000 ppm): 0%
corn safety (corn; 1000 to 3000 ppm): substantially innocuous to corn
Percent crop injury CR (corn; 2000 ppm): 0%
Percent crop injury CR (corn; 3000 ppm): 0%
% Control BG (barnyard grass [7]): 65%
Percent Weed Control WO (wild oat; 1000 ppm): 0%
Percent Weed Control WO (wild oat; 2000 ppm): 0%
Percent Weed Control WO (wild oat; 3000 ppm): 10%
Percent Weed Control GF (green foxtail [8]; 1000 ppm): 100%
Percent Weed Control GF (green foxtail [8]; 2000 ppm): 100%
Percent Weed Control GF (green foxtail [8]; 3000 ppm): 100%
% Control PS (prickly sida [9]): 75%
Percent Weed Control BG (barnyard grass [10]; 1000 ppm): 85%
Percent Weed Control BG (barnyard grass [10]; 2000 ppm): 85%
Percent Weed Control BG (barnyard grass [10]; 3000 ppm): 95%
Percent crop injury RC (rice; 1000 ppm): 50%
Percent crop injury RC (rice; 2000 ppm): 50%
Percent crop injury RC (rice; 3000 ppm): 50%
control of several grass weeds (grass weeds): good control of several grass weeds
Percent Weed Control WM (wild morningglory; 1000 ppm): 10%
Percent Weed Control WM (wild morningglory; 2000 ppm): 10%
Percent Weed Control WM (wild morningglory; 3000 ppm): 20%
Percent crop injury CT (cotton; 1000 ppm): 20%
Percent crop injury CT (cotton; 2000 ppm): 20%
Percent crop injury CT (cotton; 3000 ppm): 20%
Percent crop injury SO (soybean; 1000 ppm): 20%
Percent crop injury SO (soybean; 2000 ppm): 20%
Percent crop injury SO (soybean; 3000 ppm): 20%
% Control SG (switchgrass [11]): 100%
postemergent herbicidal control (weeds [12]): desirable postemergent herbicidal control
% Control PS (prickly sida [13]): 0%
% Control TM (tall morningglory [14]): 55%
Percent Weed Control VL (velvet leaf [15]; 1000 ppm): 90%
Percent Weed Control VL (velvet leaf [15]; 2000 ppm): 90%
Percent Weed Control VL (velvet leaf [15]; 3000 ppm): 90%
% Control VL (velvet leaf [16]): 0%
Percent Weed Control PS (prickly sida [17]; 1000 ppm): 0%
Percent Weed Control PS (prickly sida [17]; 2000 ppm): 0%
Percent Weed Control PS (prickly sida [17]; 3000 ppm): 0%
% Control GF (green foxtail [18]): 95%
